According to patent publication US5352608A (priority 1992, dated 1994):
Entries after “also recorded” stand apart in the source; their conditions may differ. Like-named read-outs stand apart in the source and are kept apart here.

Tests used:
[1] = test system: Rhodobacter sphaeroides 2.4.1; assay type: cell-based
R. sphaeroides 2.4.1 = assay type: cell-based, Rhodobacter sphaeroides
[2] = test system: Rhodopseudomonas palustris 1e5; experiment: Intrinsic HLR to TeO3^2- (MIC); assay type: cell-based
E. coli = details: exogenously supplied L-methionine; Scala and Williams; cited from earlier work
[3] = Table 4, photoheterotrophic, 2 mM PO4^3-, 10 W/m^2
[4] = Table 4, photoheterotrophic, SMM succinate, 10 W/m^2

Molecule	MIC Low-PO4^3- Medium [1]	MIC Standard Medium [1]	Gas evolution in words (R. sphaeroides 2.4.1)	Reduction to elemental state (R. sphaeroides 2.4.1)	Resistance in words [1]	also measured
[O]=[Cr](=[O])=[O] [CrO3]	< 10 µg/mL	20 µg/mL	–	–	–	MIC [1]: < 20 µg/mL
[O-][I+3]([O-])([O-])O [IO4^-]	–	–	no gas evolution was observed	Neither IO4^-, SiO3^2-, nor SiO^42- was reduced to its elemental state	resistance was shown	Decrease in resistance when extracellular phosphate reduced ten-fold [1]: three- to four-fold; Intrinsic resistance relative to γ-3 Proteobacteria [1]: twenty-fold
O=[Te](=O)([O-])[O-].[K+].[K+] [K2 TeO4]	500 µg/mL	500 µg/mL	Copious gas evolution	–	High level resistance	Appearance of cells / metal deposit (R. sphaeroides 2.4.1): intracellular accumulation of a dense metal deposit; Intrinsic resistance relative to E. coli [2]: 40 times; Relative toxicity [1]: SeO4^2- >TeO4^2- >TeO3^2- >SeO3^2- >Rh2 O3.5H2 O
[K+].[O]=[Mn](=[O])(=[O])[O-] [KMnO4]	< 10 µg/mL	20 µg/mL	–	–	–	MIC [1]: < 20 µg/mL
N[C@@H](CS)C(=O)O [L-cysteine, reference compound]	–	–	–	–	–	Effect of medium supplement on HLR [1]: solely responsible for the increased sensitivity to TeO3^2-
CSCC[C@H](N)C(=O)O [L-methionine, reference compound]	–	–	–	–	–	TeO3^2- resistance enhancement by L-methionine (E. coli): two-fold; Effect of medium supplement on HLR [1]: no affect on HLR to TeO3^2-
[O]=[Mo](=[O])=[O] [MoO3]	sat'd sol'n	sat'd sol'n	–	–	shows resistance	Effect on cell growth as saturated solution [1]: did not affect cell growth
[NH4+].[O]=[V](=[O])[O-] [NH4 VO3]	sat'd sol'n	sat'd sol'n	–	–	shows resistance	Effect on cell growth as saturated solution [1]: did not affect cell growth
[Na+].[Na+].[O]=[Cr](=[O])([O-])[O-] [Na2 CrO4]	20 µg/mL	10 µg/mL	–	–	–	MIC [1]: < 20 µg/mL
[Na+].[Na+].[O]=[Mo](=[O])([O-])[O-] [Na2 MoO4]	–	–	no gas was evolved	not reduced to their elemental states	resistance was shown	Effect of extracellular phosphate on resistance [1]: unaffected by extracellular phosphate levels; MIC Low-PO4^3- Medium [1, 3]: 1500 µg/mL; MIC Standard Medium [1, 4]: 1400 µg/mL
O=S([O-])[O-].[Na+].[Na+] [Na2 SO3]	500 µg/mL	600 µg/mL	no gas was evolved	not reduced to their elemental states	resistance was shown	Effect of extracellular phosphate on resistance [1]: unaffected by extracellular phosphate levels
O=[Se]([O-])[O-].[Na+].[Na+] [Na2 SeO3]	500 µg/mL	800 µg/mL	–	–	High level resistance	Appearance of cells / metal deposit (R. sphaeroides 2.4.1): bright red in color; Relative toxicity [1]: SeO4^2- >TeO4^2- >TeO3^2- >SeO3^2- >Rh2 O3.5H2 O
O=[Se](=O)([O-])[O-].[Na+].[Na+] [Na2 SeO4]	100 µg/mL	150 µg/mL	–	–	High level resistance	Appearance of cells / metal deposit (R. sphaeroides 2.4.1): bright red in color; Relative toxicity [1]: SeO4^2- >TeO4^2- >TeO3^2- >SeO3^2- >Rh2 O3.5H2 O
O=[Si]([O-])[O-].[Na+].[Na+] [Na2 SiO3]	100 µg/mL	400 µg/mL	no gas evolution was observed	Neither IO4^-, SiO3^2-, nor SiO^42- was reduced to its elemental state	resistance was shown	Decrease in resistance when extracellular phosphate reduced ten-fold [1]: three- to four-fold; Intrinsic resistance relative to γ-3 Proteobacteria [1]: twenty-fold
[Na+].[Na+].[O]=[W](=[O])([O-])[O-] [Na2 WO4]	–	–	no gas was evolved	not reduced to their elemental states	resistance was shown	Effect of extracellular phosphate on resistance [1]: unaffected by extracellular phosphate levels; MIC Low-PO4^3- Medium [1, 3]: 1600 µg/mL; MIC Standard Medium [1, 4]: 1600 µg/mL
O.O.O.O.O.[O]=[Rh][O][Rh]=[O] [Rh2 O3.5H2 O, rhodium sesquioxide]	sat'd sol'n	sat'd sol'n	–	–	High level resistance; also recorded: shows resistance	Appearance of cells / metal deposit (R. sphaeroides 2.4.1): grayish bronze; Effect on cell growth as saturated solution [1]: did not affect cell growth; Relative toxicity [1]: SeO4^2- >TeO4^2- >TeO3^2- >SeO3^2- >Rh2 O3.5H2 O
[O-2].[O-2].[O-2].[Sb+3].[Sb+3] [Sb2 O3]	sat,d sol'n	sat'd sol'n	–	–	shows resistance	Effect on cell growth as saturated solution [1]: did not affect cell growth
[O]=[Sn]=[O] [SnO2]	sat'd sol'n	sat'd sol'n	–	–	shows resistance	Effect on cell growth as saturated solution [1]: did not affect cell growth
N[C@@H](CSSC[C@H](N)C(=O)O)C(=O)O [cystine, reference compound]	–	–	–	–	–	Effect of medium supplement on HLR [1]: Neither cystine, glutathione nor thioglycollate, however, decreased HLR
N[C@@H](CCC(=O)N[C@@H](CS)C(=O)NCC(=O)O)C(=O)O [glutathione, reference compound]	–	–	–	–	–	Effect of medium supplement on HLR [1]: Neither cystine, glutathione nor thioglycollate, however, decreased HLR
O=C(O)CS [thioglycollate, reference compound]	–	–	–	–	–	Effect of medium supplement on HLR [1]: Neither cystine, glutathione nor thioglycollate, however, decreased HLR
Na2 HAsO4	–	–	no gas was evolved	not reduced to their elemental states	resistance was shown	Effect of extracellular phosphate on resistance [1]: unaffected by extracellular phosphate levels; MIC Low-PO4^3- Medium [1, 3]: 1600 µg/mL; MIC Standard Medium [1, 4]: 1500 µg/mL
Na2 SiO4	100 µg/mL	300 µg/mL	no gas evolution was observed	Neither IO4^-, SiO3^2-, nor SiO^42- was reduced to its elemental state	resistance was shown	Decrease in resistance when extracellular phosphate reduced ten-fold [1]: three- to four-fold; Intrinsic resistance relative to γ-3 Proteobacteria [1]: twenty-fold
Na2 SnO4	800 µg/mL	800 µg/mL	no gas was evolved	not reduced to their elemental states	resistance was shown	Effect of extracellular phosphate on resistance [1]: unaffected by extracellular phosphate levels
NaSiO4	150 µg/mL	400 µg/mL	–	–	–	–
